“Also recorded” adds a separate entry of the source. Where two headings read alike, the source gives them in different places.
What was measured:
coronaviruses = settings: reference (4); cited from earlier work
SARS-CoV-2 Spike protein [1] = format: cell-based
[2] = cited from earlier work
[3] = system: SARS-CoV-2 S glycoprotein; format: binding
[4] = system: SARS-CoV-2 reporter virus (rSARS-CoV-2/Wuhan/ORF7-tGFP); format: cell-based
SARS-CoV-2 Spike protein [5] = format: binding
Caco-2-ACE2 cells = settings: 50 uM linoleic acid
[6] = molecular target: T1, SARS-CoV-2 Spike Protein receptor binding domain (RBD) (Severe acute respiratory syndrome coronavirus 2, UniProt P0DTC2)
T1 construct: SARS-CoV-2 RBD (amino acids R319 to F541); made in house; host or cells: Hi5 insect cells, MultiBac baculovirus

SMILES | Virus replication on exogenous supplement (coronaviruses) | Minivirus-ACE2 cell binding compared to ApoS Miniviruses (SARS-CoV-2 Spike protein [1]) | Water solubility [2] | Water solubility (in words) [2] | Water solubility (in words) ([2]; listed as Linoleic Acid) | Binding to S in the trimer seen by cryo-EM [3] | Effect on SARS-CoV-2 replication factories [4] | Effect on viral particles [4] | Binding of FFA in Spike protein verified by LC-MS/MS (SARS-CoV-2 Spike protein [5]) | Cell death of treated infected cells (Caco-2-ACE2 cells) | Binding to immobilized RBD quantified by SPR [6]
CCCCC/C=C\C/C=C\C/C=C\C/C=C\CCCC(=O)O [AA, arachidonic acid] | suppressed virus replication | able to reduce |  |  |  |  |  |  |  |  | 
CCCCC/C=C\C/C=C\CCCCCCCC(=O)O [LA, linoleic acid] | suppressed virus replication | able to reduce | about 100 mg/l | extremely low water solubility | virtually insoluble in water | tightly binds | disrupted; also recorded: wrecked | visible deformation and destruction | successfully verified | significant cell death was not observed | high affinity binding
CCCCCCCC/C=C\CCCCCCCC(=O)O [OA, oleic acid] |  | able to reduce |  |  |  |  |  |  | successfully verified |  | High affinity binding
CCCCCCCCCCCCCCCC(=O)O [PA, palmitic acid] |  | did not significantly reduce |  |  |  |  |  |  | not |  | 

Source: US20230227506A1, “Fatty Acid Complexes Of Coronavirus Spike Protein And Their Use” (priority 2020, published 2023)
